In patent US4092420A, “Novel soft N-chloroamino alcohol derivatives exhibiting antibacterial activity” (INTERx Research Corporation, priority 1977, dated 1978):

How the values were obtained:
T. mentagrophytes = assay: Minimal inhibitory concentration (MIC), Example V; assay type: cell-based; settings: Trichophyton mentagrophytes
From the text: (§1) MINIMAL INHIBITORY CONCENTRATION OF 2-AMINO-2-METHYL-1-PROPYL
(§2) ^a Minimal inhibitory concentration expressed in parts per million
(§3) sequence inhibited the test organism at the higher concentrations.
(§4) THE ANTIBACTERIAL SCREEN - EXAMPLE V

A. niger = assay: Minimal inhibitory concentration (MIC), Example V; assay type: cell-based; settings: Aspergillus niger
From the text: as §1, §2, §3, §4

E. coli [1] = assay: Minimal inhibitory concentration (MIC), Example V; assay type: cell-based; settings: Escherichia coli
From the text: as §1, §2, §3, §4

S. pyogenes = assay: Minimal inhibitory concentration (MIC), Example V; assay type: cell-based; settings: Streptococcus pyogenes
[2] = Solubility in 30% methanol: 0.1 M sodium dihydrogen phosphate, pH 7.0; assay type: physicochemical; settings: 0.1 m nah2po4, pH 7, organic solvent or mixture, Concentration (footnote: Solubility in 30% methanol: 0.1 M sodium dihydrogen phosphate, pH 7.0)
K. pneumoniae [3] = assay: Minimal inhibitory concentration (MIC), Example V; assay type: cell-based; settings: Klebsiella pneumoniae
Description: as §1, §2, §3, §4
Klebsiella pneumoniae ATCC# 10031
(§5) THE ANTIBACTERIAL SCREEN - EXAMPLES W - Z (Autotiter IV)
(§6) (a) Compounds. All compounds to be screened are weighed (approx. 10 mg) on the day preceding the test date. Each compound is solubilized on the day of assay in appropriate solvent and diluted automatically in the Autotiter IV with distilled water (buffer can be employed here also).
(§7) Bacteria: Staphylococcus aureas Smith (or 209), Escherichia coli AB 1932-1, 1100/B22 and Vogel, Streptococcus pyogenes C203 Salmonella typhimurium 14028, Bacillus subtilis 6051-1, Klebsiella pneumoniae 10031, Pseudomonas aeruginosa 9027, Bordetella bronchiseptica 4617 and Staphylococcus epidermidis 12228.
(§8) (c) Inocula. Prior to utilization in the Autotiter IV, all bacteria are cultured for 18-20 hr. (37° C) in tryptose phosphate broth (TP), except, S. pyogenes C203, which is cultured in Brain Heart Infusion broth plus 10% normal horse serum. Immediately prior to testing, each culture is adjusted to an optical density of 0.10 (650 nm), employing a Bausch & Lomb Spectronic 20, and diluted subsequently into double strength medium to approximately 2 × 10^5 viable organisms per ml.
(§9) 1. An automated injector system dispenses 0.05 ml of diluent (sterile H2 O or buffer) to all cups of the autotiter trays from rows 2 through 7.
(§10) 2. The loops (for sequential dilutions of the compounds are moistened by immersion into 70% ethyl alcohol. After removal of excess alcohol by blotting, the loops are moved to the first row of cups in the autotray containing 0.10 ml of the compound to be diluted and tested (usually, this initial concentration is 500 to 1000 mcg/ml, but can be varied upward or downward). The loops are lowered and sequentially transfer the diluted solutions of the compound through row 7.
(§11) Immediately after each dilution is made, each cup is automatically inoculated with 0.05 ml of the appropriate test organism. This inoculation derives from a second injector system containing the organism in double-strength medium. The total operation consists of the automatic dilution of a single compound in each of 8 rows of the Autotiter try.
(§12) After these operations, we reverse the tray and a second compound is diluted over the other one-half of the tray and inoculated, subsequently, with 8 organisms. Thus, for each Autotiter Tray, two compounds are screened against 8 different organisms at dilutions ranging from 1:2 to 1:128.
(§13) (e) Incubation. The inoculated Autotiter trays are incubated at 37° C for 18 - 20 hr. At the end of this period, each tray is examined for the presence or absence of growth (turbidity). The lowest concentration of the compound inhibiting growth is recorded as the minimal inhibitory concentration (MIC).

P. aeruginosa [4] = assay: Minimal inhibitory concentration (MIC), Example V; assay type: cell-based; settings: Pseudomonas aeruginosa
Description: as §4, §5, §6, §7, §8, §9, §10, §11, §12, §13

S. aureus [5] = assay: Minimal inhibitory concentration (MIC), Example V; assay type: cell-based; settings: Staphylococcus aureus
Description: as §4, §5, §6, §7, §8, §9, §10, §11, §12, §13

C. albicans = assay: Minimal inhibitory concentration (MIC), Example V; assay type: cell-based; settings: Candida albicans
From the text: MINIMAL INHIBITORY CONCENTRATION OF 2-AMINO-2-METHYL-1-PROPYL […]
as §4

K. pneumoniae [6] = assay: Contact germicidal efficiency (sterilization time); assay type: cell-based, Klebsiella pneumoniae; settings: Example Z
Description: (§14) CONTACT GERMICIDAL EFFICIENCY OF N-CHLORAMINES AS A FUNCTION
(§15) ^a Time intervals screened 0.5, 1, 2, 3, 4 and 5 minutes.
(§16) ^a Time intervals screened 0.5, 1, 2, 3, 4, 5, 6, 7, 8, 9 and 10
(§17) ^a Time intervals screened 0.5, 1, 2, 3, 4, and 5 minutes.
(§18) ^b Time intervals screened 0.5, 1, 2, 3, 4, 5, 6, 7, 8, 9 and 10
(§19) Immediately preceding the screen, the compound is weighed and diluted with a buffer or other solvent to give the final concentration desired. The buffer or solvent chosen depends on the conditions of the screen and could be one of the following: 0.1 M NaOAc, pH 4.6; 0.1 M NaH2 PO4, pH 7.0; 0.1 M Na2 B4 O7, pH 8.8; 35% methanol in one of the aforementioned buffers; 10% Triton × 100 in buffer, etc.
(§20) The positive chlorine concentration of the test solution is then determined iodometrically.
(§21) Media used for the Screen are Nutrient Broth, BBL# 11479 and Nutrient Agar, BBL# 11472 prepared according to label directions. The broth is dispensed in 75 ml amounts of flasks for overnight cultures and in 5 ml amounts to culture tubes for subculturing during the Screen. Agar plates are prepared as usual.
(§22) Overnight cultures are prepared by inoculating from stock cultures into the 75 ml flasks of nutrient broth and incubating for 15 hours at 37° C.
(§23) The iodometrically characterized test solution is dispensed in 5 ml amounts to seven small stoppered flasks. The organisms are screened one at a time as follows:
(§24) A 0.2 ml portion of the overnight culture is inoculated into 5 ml of 0.9% NaCl for use in controls. A 0.2 ml portion of the overnight culture is inoculated into a flask containing 5 ml of the test solution, an automatic timer is simultaneously triggered and the solution mixed. At time intervals of 30 seconds, 1, 2, 3, 4, 5, 6, 7, 8, 9, and 10 minutes a loopful of the inoculated solution is subcultured into 5 ml of sterile nutrient broth and mixed by a Vortex Genie Mixer, the high dilution serving to stop the action of the compound. At the end of the ten minute screen, the entire procedure is repeated for each of the remaining six organisms. All of the subculture tubes are incubated at 37° C and checked for signs of growth by turbidity at 24 hr., 48 hr., 3, 5, and 7 days. The earliest subculture time at which no growth is present in the subculture tube is considered the endpoint and is recorded as that time, e.g., 7 minutes.
(§25) The test solution is prepared and characterized as above but is made up at twice the concentration desired. The solution is diluted 1:1 with Rehydrated Tissue Culture Dessicated Horse Serum, Difco #5357-72 and dispensed in a 5 ml amount to a small flask. The mixture is incubated at Room Temperature for 30 minutes to allow denaturation of the compound by the serum and then screened as above.
(§26) The 5 ml mixture of serum and test solution are prepared in sequence to allow as close to 30 minutes as possible before the beginning of the screen of each organism.
as §7

B. bronchiseptica = assay: Contact germicidal efficiency (sterilization time); assay type: cell-based, Bordetella bronchiseptica; settings: Example Z
Description: as §14, §15, §16, §17, §18, §19, §20, §21, §22, §23, §24, §25, §26, §7

E. coli [7] = assay: Contact germicidal efficiency (sterilization time); assay type: cell-based, Escherichia coli; settings: Example Z, pH 4.6, in presence of horse serum, 5800 ppm (1057 PPMCl+)
Description: (§27) CONTACT GERMICIDAL EFFICIENCY OF
as §15, §16, §17, §18, §19, §20
as §21, with “usual. […]” for “usual.”
(§28) A 0.2 ml portion of the overnight culture is inoculated into 5 ml of 0.9% NaCl for use in controls. […] The earliest subculture time at which no growth is present in the subculture tube is considered the endpoint and is recorded as that time, e.g., 7 minutes. […]

P. aeruginosa [8] = assay: Contact germicidal efficiency (sterilization time); assay type: cell-based, Pseudomonas aeruginosa; settings: Example Z
Description: as §14, §15, §16, §17, §18, §19, §20, §21, §22, §23, §24, §25, §26, §7

S. epidermidis = assay: Contact germicidal efficiency (sterilization time); assay type: cell-based, Staphylococcus epidermidis; settings: Example Z, S. pidermidis, pH 4.6
Description: as §14, §15, §16, §17, §18, §19, §20, §21, §22, §23, §24, §25, §26, §7

S. aureus [9] = assay: Contact germicidal efficiency (sterilization time); assay type: cell-based, Staphylococcus aureus; settings: Example Z, pH 4.6, in presence of horse serum, 5800 ppm (1057 PPMCl+)
Description: as §27, §15, §16, §17, §18, §19, §20
as §21, with “usual. […]” for “usual.”
as §28

[10] = prior art; cited from earlier work
[11] = pH 4.6, absence of horse serum, IV j 79 ppm (21 PPMCl+), IV k 5800 (1057), IV l 1112 (209)
[12] = pH 4.6, in presence of horse serum, 5800 ppm (1057 PPMCl+)

Compound | MIC (T. mentagrophytes) [mg/L] | MIC (A. niger) [mg/L] | MIC (E. coli [1]) [mg/L] | MIC (S. pyogenes) [mg/L] | solubility [2] [mg/mL] | MIC (K. pneumoniae [3]) [mg/L] | MIC (P. aeruginosa [4]) [mg/L] | MIC (S. aureus [5]) [mg/L] | MIC (C. albicans) [mg/L] | Sterilization Time (K. pneumoniae [6]; [11]) [min] | Sterilization Time (K. pneumoniae [6]; [12]) [min] | Sterilization Time (B. bronchiseptica; [11]) [min] | Sterilization Time (B. bronchiseptica; [12]) [min] | Sterilization Time (E. coli [7]) [min] | Sterilization Time (P. aeruginosa [8]; [11]) [min] | Sterilization Time (P. aeruginosa [8]; [12]) [min] | Sterilization Time (S. epidermidis; absence of horse serum, IV j 79 ppm (21 PPMCl+), IV k 5800 (1057), IV l 1112 (209)) [min] | Sterilization Time (S. epidermidis; in presence of horse serum, 5800 ppm (1057 PPMCl+)) [min] | Sterilization Time (S. aureus [9]) [min] | Deactivation by denaturing agents (e.g., horse serum) [10]
CCCCCCCC(=O)OCC(C)(C)N.Cl [III e, 2-Amino-2-methyl-1-propyl octanoate hydrochloride] | > 62.5 | > 62.5 | > 62.5 | > 62.5 | 1.04 | > 62.5 | > 62.5 | > 62.5 | > 62.5 | – | – | – | – | – | – | – | – | – | – | –
C[n+]1cccc(C(=O)OCC(C)(C)N(Cl)Cl)c1 [IV k, 2-N,N-Dichloroamino-2-methyl-1-propyl nicotinate methylsulfate] | 125 | 125 | > 250 | > 250 | – | > 250 | > 250 | > 250 | > 250 | 2 | 2 | 1 | 2 | 0.5 | 2 | 2 | 4 | 4 | 6 | –
NCl [NH2 Cl, chloramine] | – | – | – | – | – | – | – | – | – | – | – | – | – | – | – | – | – | – | – | readily deactivated
ClNCl [NHCl2] | – | – | – | – | – | – | – | – | – | – | – | – | – | – | – | – | – | – | – | readily deactivated
